{
  "source": "patent US20240307349A1",
  "about": "“METHODS FOR THE PREPARATION AND DOSE REGIMENS FOR USE OF SSTR4 AGONISTS AND SALTS THEREOF” (priority 2023, published 2024)",
  "format_in_all_cases": "in vivo, human",
  "key": {"[1]": {"experiment": "Phase 1 study LXBB, single-dose pharmacokinetics in healthy subjects", "method": "A total of 116 healthy subjects received at least one dose of Example 5 in phase 1 studies LXBB and LXBA.\nThe single-dose pharmacokinetics (PK) of Example 5 were evaluated at a dose range of from 20 to 400 mg.\nPhase 1 Study LXBB was a first-in-human single-ascending dose/multiple-ascending dose (SAD/MAD) study in 89 healthy subjects (TABLE 1). […] One subject was discontinued due to the nondrug-related AE of pyrexia. In the SAD study, 1 subject each reported AEs of temporomandibular joint syndrome and tension headache. In the food effect study, 1 subject reported dry eye and nausea. In the Younger Group 10-day multiple-dose exposure study, the most commonly reported AEs were headache (2 subjects), diarrhea (2 subjects), nausea, rhinitis, and orthostatic hypotension (1 subject each). In the Elderly Group 10-day multiple-dose exposure study, the most commonly reported AEs were headache (5 subjects), pain in extremity (1 subject), vessel puncture site bruise (1 subject), dizziness (1 subject), and orthostatic hypotension (1 subject)."}, "[2]": {"experiment": "Phase 1 study LXBA, multiple-dose steady-state plasma PK in healthy subjects", "details": "for RA (accumulation ratio based on AUC(0-τ)) / AUC: tau = 12 hours; for Cmax / AUC(0-t) / AUC: human, in vivo, steady state; for Cmax: n = 6, geometric mean; for AUC(0-t): = 2 × AUC(0-τ), read-out: AUC(0-24); for AUC: geometric mean, read-out: AUC(0-τ)", "method": "The multiple-dose PK of Example 5 were evaluated at doses of 200 mg, 400 mg, and 600 mg, twice daily. The median time to tmax ranged from 1 to 3 hours post dose.\nStudy LXBA is a completed study and consisted of 2 parts, Part A and Part B (TABLE 1). Part A of the study had 18 healthy subjects in 3 dosing cohorts, and Part B had 9 healthy subjects exposed to Example 5. […] In Part A, all treatment-emergent adverse events (TEAEs) were mild in severity except for 1 moderate event of presyncope. Constipation and insomnia (2 events each) were the only TEAEs reported in >1 subject. In Part B, the reported TEAEs were dysgeusia, nausea, and vomiting, which were all mild in severity."}, "patients": {"tested_on": "patients", "experiment": "Pooled safety analysis of Phase 2 studies OA03, BP03 and NP03", "details": "200 mg to 600 mg", "method": "For each of these studies, further analyses were performed to identify TEAEs related to CV, thyroid, and abnormal renal function. CV AEs were identified using prespecified standardized MedDRA queries/preferred terms (SMQs/PTs) for cardiac arrhythmia, hypotension, major adverse cardiovascular event, and congestive heart failure. Thyroid-related AEs were identified with the ‘Hypothyroidism’ (SMQ), and AEs associated with abnormal renal function were identified with the high-level terms (HLTs) renal failure and impairment and select PTs.\nSafety data from the 3 pooled intervention-specific appendix (ISAs), OA03, BP03, and NP03 were analyzed for the following safety topics of interest.\nThus, after the treatment of a total 282 patients that were administered from 200 mg to 600 mg of Example 5 in the 3 phase 2 studies, an adequate safety profile was established. While the safety of the 3 phase 2 studies were discussed together, the efficacy results for each study will be discussed herein."}, "[3]": {"tested_on": "participants with OA in the knee", "experiment": "H0P-MC-OA03 Phase 2 placebo-controlled trial, osteoarthritis pain", "from_the_text": "The purpose of this study was to test whether Example 5 is efficacious in relieving osteoarthritis (OA) pain in the knee. Data was also collected to assess the safety and tolerability of Example 5 in this study population and previously discussed. Pharmacokinetic properties and pharmacodynamic effects were also be explored. The totality of data from this proof-of-concept study assessed the benefits and risks associated with Example 5.\nOA03 was an 8-week, Phase 2, randomized, double-blind, placebo-controlled study that compared Example 5 versus placebo in participants with OA in the knee.\nThe primary clinical question of interest was “What is the treatment difference between Example 5 and placebo assessed using mean change from baseline to endpoint (Week 8) for average pain intensity (API) as measured using the numeric rating scale (NRS) in participants with OA of the knee regardless of initiation of rescue medication or other allowed concomitant medication and assuming that they would have continued initially randomized treatment condition?”\nThe key secondary clinical question of interest was: “What is the treatment difference between Example 5 and placebo assessed using mean change from baseline to endpoint (Week 8) for pain as measured by the WOMAC® (Western Ontario and McMaster Universities Arthritis Index) pain subscale in participants with OA of the knee regardless of initiation of rescue medication or other allowed concomitant medication and assuming that they would have continued initially randomized treatment condition?”\nParticipants were randomly assigned in the ratio of 2:1 to Example 5 or placebo. Based on tolerability, participants could take up to a maximum of 3 capsules orally (each capsule was 200 mg), twice daily (BID), approximately every 12 hours, for a total dose of 600 mg.\nThe protocol was amended to include a titration to the target dose of 600 mg. Investigators could reduce the dose from 600 to 400 mg after discussion with the participant due to tolerability as long as the change occurred before the end of Visit 4, that is, study Week 2. The medical monitor was contacted as needed."}, "participants with CLBP": {"tested_on": "participants with CLBP", "experiment": "H0P-MC-BP03 Phase 2 placebo-controlled trial, chronic low back pain", "from_the_text": "The purpose of this study was to test whether Example 5 is efficacious in relieving chronic low back pain (CLBP). Data will be collected to assess the safety and tolerability of Example 5 in this study population, which was previously discussed. Pharmacokinetic (PK) properties and pharmacodynamic (PD) effects were also be explored. The totality of data from this proof-of-concept study will assess the benefits and risks associated with Example 5.\nBP03 was an 8-week, Phase 2, randomized, double-blind, placebo-controlled study that will compare Example 5 versus placebo in participants with CLBP. Participants received either Example 5 or placebo. Based on tolerability, participants took up to a maximum of 3 capsules orally (each capsule is 200 mg), twice daily (BID), approximately every 12 hours, for a total dose of 600 mg.\nThe primary clinical question of interest was, “What is the treatment difference between Example 5 and placebo assessed using mean change from baseline to endpoint (Week 8) for average pain intensity (API) as measured by the numeric rating scale (NRS) in participants with CLBP regardless of initiation of rescue medication or other allowed concomitant medication and assuming that they would have continued initially randomized treatment condition?”"}},
  "note": "Where two headings read alike, the source gives them in different places.",
  "data": [
    {"smiles": "Cc1cccnc1OCC(C)(C)NC(=O)[C@H]1[C@@H]2CNC[C@@H]21.O=C(O)C(O)C(O)C(=O)O", "note": "[Example 5, (1R,5S,6r)-N-(2-Methyl-1-((3-methylpyridin-2-yl)oxy)propan-2-yl)-3-azabicyclo[3.1.0]hexane-6-carboxamide L-tartrate sesquihydrate]", "values": [
      {"measurement": "Tmax", "setting": "[1]; human, in vivo", "result": "2 to 3", "unit": "h"},
      {"measurement": "CL renal", "setting": "[1]; human, in vivo, single dose, 20 to 400 mg, read-out: Renal clearance (converted)", "result": "~167", "unit": "mL/min"},
      {"measurement": "half-life", "setting": "[1]; human, in vivo, single dose, 20 to 400 mg, read-out: mean terminal half-life (t1/2)", "result": "11 to 13", "unit": "h"},
      {"measurement": "dose dependence of plasma concentrations", "setting": "[1]; single dose, 20 to 400 mg", "result": "generally increased in a dose-proportional manner"},
      {"measurement": "inter-subject variability coefficient of variation of plasma concentrations", "setting": "[1]; single dose, 20 to 400 mg", "result": "< 25", "unit": "%"},
      {"measurement": "RA (accumulation ratio based on AUC(0-τ))", "setting": "[2]; 200 mg BID", "result": 1.49},
      {"measurement": "RA (accumulation ratio based on AUC(0-τ))", "setting": "[2]; 400 mg BID", "result": 1.81},
      {"measurement": "RA (accumulation ratio based on AUC(0-τ))", "setting": "[2]; 600 mg BID", "result": 1.64},
      {"measurement": "Cmax", "setting": "[2]; 200 mg BID (400 mg)", "result": 1620, "unit": "ng/mL"},
      {"measurement": "AUC(0-t)", "setting": "[2]; 200 mg BID", "result": 23000, "unit": "ng·h/mL"},
      {"measurement": "AUC", "setting": "[2]; 200 mg BID", "result": 11500, "unit": "ng·h/mL"},
      {"measurement": "Cmax", "setting": "[2]; 400 mg BID (800 mg)", "result": 3240, "unit": "ng/mL"},
      {"measurement": "AUC(0-t)", "setting": "[2]; 400 mg BID", "result": 51000, "unit": "ng·h/mL"},
      {"measurement": "AUC", "setting": "[2]; 400 mg BID", "result": 25800, "unit": "ng·h/mL"},
      {"measurement": "Cmax", "setting": "[2]; 600 mg BID (1200 mg)", "result": 5210, "unit": "ng/mL"},
      {"measurement": "AUC(0-t)", "setting": "[2]; 600 mg BID", "result": 77400, "unit": "ng·h/mL"},
      {"measurement": "AUC", "setting": "[2]; 600 mg BID", "result": 38700, "unit": "ng·h/mL"},
      {"measurement": "steady-state Cmax and AUC0-24 inter-subject coefficient of variations", "setting": "[2]; multiple dose, 200 mg, 400 mg and 600 mg twice daily", "result": "< 25", "unit": "%"},
      {"measurement": "differences in thyroid-related TEAEs or thyroid analytes versus placebo", "setting": "patients", "result": "no clinically meaningful differences"},
      {"measurement": "Mean change from baseline assessment to endpoint for API as measured using the NRS", "setting": "[3]; 8 weeks after initial treatment administration, up to 600 mg Q12H, n = 135", "result": "−1.7"},
      {"measurement": "key secondary objective: efficacy versus placebo, WOMAC pain subscale", "setting": "[3]; Week 8", "result": "did not meet the prespecified threshold"},
      {"measurement": "primary objective: efficacy versus placebo, API by weekly average of NRS", "setting": "[3]; Week 8, osteoarthritic pain", "result": "did not meet the prespecified threshold"},
      {"measurement": "mean change in pain intensity from baseline assessment to Week 8 using the WOMAC pain subscale", "setting": "[3]; Week 8, up to 600 mg Q12H, n = 135", "result": "−2.6"},
      {"measurement": "Mean change from baseline assessment to endpoint for API as measured using the NRS", "setting": "participants with CLBP; 8 weeks after initial treatment administration, up to 600 mg Q12H, n = 102", "result": "−1.7"},
      {"measurement": "primary objective: efficacy versus placebo, API by weekly average of NRS", "setting": "participants with CLBP; Week 8, CLBP", "result": "did not meet the prespecified threshold"}
    ]}
  ]
}
